Publication PMC5540273, “Progress towards a public chemogenomic set for protein kinases and a call for contributions” (PLoS ONE, 2017)

Legend:
Assay in all cases: KINOMEscan competition binding
GAK = target: T1, GAK (Homo sapiens, UniProt O14976); settings: read-out: %Inh GAK
T1 sequence (O14976 1-1311): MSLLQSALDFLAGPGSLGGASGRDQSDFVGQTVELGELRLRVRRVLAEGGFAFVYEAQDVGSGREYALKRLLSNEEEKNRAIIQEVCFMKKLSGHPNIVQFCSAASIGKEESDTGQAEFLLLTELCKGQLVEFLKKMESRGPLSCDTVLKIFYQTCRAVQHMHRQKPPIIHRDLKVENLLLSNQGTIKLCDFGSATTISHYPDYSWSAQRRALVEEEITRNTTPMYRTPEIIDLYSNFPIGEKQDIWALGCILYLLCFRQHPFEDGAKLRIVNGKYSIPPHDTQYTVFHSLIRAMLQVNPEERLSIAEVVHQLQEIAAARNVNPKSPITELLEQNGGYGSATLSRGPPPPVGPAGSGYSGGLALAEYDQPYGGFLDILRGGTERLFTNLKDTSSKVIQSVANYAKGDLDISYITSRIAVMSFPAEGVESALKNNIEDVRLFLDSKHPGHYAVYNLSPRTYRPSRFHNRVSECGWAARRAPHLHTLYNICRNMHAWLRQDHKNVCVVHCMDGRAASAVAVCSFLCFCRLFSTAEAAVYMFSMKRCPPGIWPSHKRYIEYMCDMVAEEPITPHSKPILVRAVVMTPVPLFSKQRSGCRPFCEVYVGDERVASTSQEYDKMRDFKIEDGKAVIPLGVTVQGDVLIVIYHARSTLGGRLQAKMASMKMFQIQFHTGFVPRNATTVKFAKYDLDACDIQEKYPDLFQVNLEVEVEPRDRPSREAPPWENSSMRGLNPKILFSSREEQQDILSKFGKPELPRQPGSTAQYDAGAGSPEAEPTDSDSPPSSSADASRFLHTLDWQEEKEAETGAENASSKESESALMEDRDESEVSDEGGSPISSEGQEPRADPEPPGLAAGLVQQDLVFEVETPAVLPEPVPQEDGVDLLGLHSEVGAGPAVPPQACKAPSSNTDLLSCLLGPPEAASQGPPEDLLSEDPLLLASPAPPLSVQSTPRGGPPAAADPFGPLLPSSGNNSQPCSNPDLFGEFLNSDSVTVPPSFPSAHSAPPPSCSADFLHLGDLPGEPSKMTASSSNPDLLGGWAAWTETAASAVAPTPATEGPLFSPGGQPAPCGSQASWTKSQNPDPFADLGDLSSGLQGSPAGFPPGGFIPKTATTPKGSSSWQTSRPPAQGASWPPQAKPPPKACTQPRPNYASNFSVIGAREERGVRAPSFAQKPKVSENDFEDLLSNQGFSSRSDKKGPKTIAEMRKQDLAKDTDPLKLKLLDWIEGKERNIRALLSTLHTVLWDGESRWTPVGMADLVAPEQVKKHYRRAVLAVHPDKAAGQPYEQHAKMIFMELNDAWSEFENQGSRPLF

GRK4 = GRK4 (Homo sapiens, UniProt P32298); settings: read-out: %Inh GRK4
MAP3K2 = target: T2, MAP3K2 (Homo sapiens, UniProt Q9Y2U5); settings: read-out: %Inh MAP3K2
T2 sequence (Q9Y2U5 1-619): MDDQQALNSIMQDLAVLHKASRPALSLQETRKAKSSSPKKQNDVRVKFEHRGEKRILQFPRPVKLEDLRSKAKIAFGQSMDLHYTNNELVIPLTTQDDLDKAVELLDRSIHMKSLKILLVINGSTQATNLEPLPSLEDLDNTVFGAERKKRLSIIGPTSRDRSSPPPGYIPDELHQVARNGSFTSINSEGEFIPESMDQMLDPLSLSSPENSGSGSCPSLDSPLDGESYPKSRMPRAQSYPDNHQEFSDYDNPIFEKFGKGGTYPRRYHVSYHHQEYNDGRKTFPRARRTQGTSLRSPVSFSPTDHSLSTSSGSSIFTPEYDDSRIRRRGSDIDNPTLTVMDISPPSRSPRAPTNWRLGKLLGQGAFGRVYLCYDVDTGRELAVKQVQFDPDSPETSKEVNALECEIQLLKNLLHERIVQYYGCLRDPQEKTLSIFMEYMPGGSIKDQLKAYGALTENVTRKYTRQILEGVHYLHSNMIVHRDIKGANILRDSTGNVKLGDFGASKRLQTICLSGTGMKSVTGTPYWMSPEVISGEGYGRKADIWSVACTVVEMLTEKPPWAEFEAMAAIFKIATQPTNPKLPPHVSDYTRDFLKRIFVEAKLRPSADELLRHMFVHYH

EPHB1 = target: T3, EPHB1 (Homo sapiens, UniProt P54762); settings: read-out: %Inh EPHB1
T3 sequence (P54762 18-984): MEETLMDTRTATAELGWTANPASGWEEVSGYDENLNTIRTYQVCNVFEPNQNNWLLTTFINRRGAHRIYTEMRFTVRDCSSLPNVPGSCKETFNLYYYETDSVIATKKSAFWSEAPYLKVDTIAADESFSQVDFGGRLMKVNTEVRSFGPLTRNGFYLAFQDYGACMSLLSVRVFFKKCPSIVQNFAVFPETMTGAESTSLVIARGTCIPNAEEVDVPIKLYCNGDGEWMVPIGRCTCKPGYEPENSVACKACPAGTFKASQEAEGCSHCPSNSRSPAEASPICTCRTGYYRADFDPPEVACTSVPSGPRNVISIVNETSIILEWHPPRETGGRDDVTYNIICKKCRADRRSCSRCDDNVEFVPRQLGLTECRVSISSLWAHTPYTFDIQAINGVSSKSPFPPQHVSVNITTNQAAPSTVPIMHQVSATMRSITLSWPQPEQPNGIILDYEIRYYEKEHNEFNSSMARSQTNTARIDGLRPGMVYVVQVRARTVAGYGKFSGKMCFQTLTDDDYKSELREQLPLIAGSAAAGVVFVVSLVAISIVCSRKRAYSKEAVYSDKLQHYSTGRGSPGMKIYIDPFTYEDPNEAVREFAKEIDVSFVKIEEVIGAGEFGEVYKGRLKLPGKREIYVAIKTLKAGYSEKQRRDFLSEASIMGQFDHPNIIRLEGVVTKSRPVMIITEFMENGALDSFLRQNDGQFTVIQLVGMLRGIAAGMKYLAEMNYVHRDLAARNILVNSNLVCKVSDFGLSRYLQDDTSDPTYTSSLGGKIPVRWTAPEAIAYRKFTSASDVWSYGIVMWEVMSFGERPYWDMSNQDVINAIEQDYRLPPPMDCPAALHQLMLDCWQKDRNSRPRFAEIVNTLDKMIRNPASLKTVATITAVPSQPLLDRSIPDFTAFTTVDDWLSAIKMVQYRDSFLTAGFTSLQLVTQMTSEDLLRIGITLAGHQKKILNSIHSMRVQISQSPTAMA

Sequence of GRK4 (P32298 whole entry): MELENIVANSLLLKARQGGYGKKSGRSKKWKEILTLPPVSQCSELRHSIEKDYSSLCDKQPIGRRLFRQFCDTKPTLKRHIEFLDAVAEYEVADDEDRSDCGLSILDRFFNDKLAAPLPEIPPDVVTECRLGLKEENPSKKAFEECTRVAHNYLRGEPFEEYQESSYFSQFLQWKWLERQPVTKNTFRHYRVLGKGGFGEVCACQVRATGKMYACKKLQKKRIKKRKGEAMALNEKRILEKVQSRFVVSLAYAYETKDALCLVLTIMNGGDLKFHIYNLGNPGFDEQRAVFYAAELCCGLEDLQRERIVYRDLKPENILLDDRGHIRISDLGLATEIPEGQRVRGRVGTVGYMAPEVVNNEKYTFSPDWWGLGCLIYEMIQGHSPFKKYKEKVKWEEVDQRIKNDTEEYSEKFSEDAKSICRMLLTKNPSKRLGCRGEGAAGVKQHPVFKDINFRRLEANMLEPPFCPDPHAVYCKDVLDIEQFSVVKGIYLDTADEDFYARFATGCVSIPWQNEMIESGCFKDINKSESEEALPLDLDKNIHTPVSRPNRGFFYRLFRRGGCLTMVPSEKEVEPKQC

SMILES | inhibition at 1 µM (GAK) [%] | inhibition at 1 µM (GRK4) [%] | inhibition at 1 µM (MAP3K2) [%] | inhibition at 1 µM (EPHB1) [%]
Cn1cc(-c2cnc(N)c3c(-c4ccc5c(c4)CCN5C(=O)Cc4ccccc4)csc23)cn1 [UNC10225012A] | 11 | 7 | 75 | 6
CS(=O)(=O)Cc1ccc(Nc2nccc(-c3c(-c4cccc(NC(=O)C5CCCCC5)c4)nn4ncccc34)n2)cc1 [UNC10225159A] | 14 | 0 | 15 | 2
Cc1ccc(NC(=O)Nc2cccc(C(F)(F)F)c2)cc1 [UNC10225187A] | 0 | 0 | 0 | 5
COc1cccc(OC)c1C(=O)Nc1cccc(-c2nn3ccccc3c2-c2ccnc(Nc3cccc(F)c3)n2)c1 [UNC10225310A] | 6 | 0 | 7 | 100
O=c1cc(N2CCOCC2)nc2n(Cc3cccc(Cl)c3Cl)c(C3CC3)nn12 [UNC10225469A] | 11 | 0 | 0 | 0
